# According to US20120115724A1, “METHOD OF CONTROLLING UNDESIRED VEGETATION” (SYNGENTA CROP PROTECTION LLC, priority 2009, published 2012):
# Legend:
# Format in all cases: in vivo
# [1] = tested on: Alopecurus myosuroides (ALOMY); test: Post-emergence biological efficacy (Example 14); settings: Alopecurus myosuroides, 312 h; post-emergence, 1,000 g/ha, after 13 days; read-out: Percentage damage ALOMY
# Method: (§1) Seeds of Alopecurus myosuroides (ALOMY), Setaria faberi (SETFA), Echinochloa crus-galli (ECHCG), Solanum nigrum (SOLNI), Amaranthus retroflexus (AMARE) and Ipomea hederaceae (IPOHE) were sown in standard soil in pots. After cultivation for 8 days under controlled conditions in a glasshouse (at 24/16° C., day/night; 14 hours light; 65% humidity), the plants were sprayed with an aqueous spray solution derived from the formulation of the technical active ingredient in acetone/water (50:50) solution containing 0.5% Tween 20 (polyoxyethylene sorbitan monolaurate, CAS RN 9005-64-5) to give a final dose of 250 or 1000 g/ha of test compound. The test plants were then grown on under controlled conditions in a glasshouse (at 24/16° C., day/night; 14 hours light; 65% humidity) and watered twice daily. After 13 days the test was evaluated (100=total damage to plant; 0=no damage to plant).
# Setaria faberi (SETFA) [2] = test: Post-emergence biological efficacy (Example 14); settings: Setaria faberi, 312 h; post-emergence, 1,000 g/ha, after 13 days; read-out: Percentage damage SETFA
# Method: as §1
# Solanum nigrum (SOLNI) [3] = test: Post-emergence biological efficacy (Example 14); settings: Solanum nigrum, 312 h; post-emergence, 1,000 g/ha, after 13 days; read-out: Percentage damage SOLNI
# Method: as §1
# [4] = tested on: Ipomea hederaceae (IPOHE); test: Post-emergence biological efficacy (Example 14); settings: Ipomoea hederacea, 312 h; post-emergence, 1,000 g/ha, after 13 days; read-out: Percentage damage IPOHE
# Method: as §1
# [5] = tested on: Amaranthus retroflexus (AMARE); test: Post-emergence biological efficacy (Example 14); settings: Amaranthus retroflexus, 312 h; post-emergence, 1,000 g/ha, after 13 days; read-out: Percentage damage AMARE
# Method: as §1
# [6] = tested on: Echinochloa crus-galli (ECHCG); test: Post-emergence biological efficacy (Example 14); settings: Echinochloa crus-galli, 312 h; post-emergence, 1,000 g/ha, after 13 days; read-out: Percentage damage ECHCG
# Method: as §1
# [7] = tested on: EPHHL Euphorbia heterophylla; test: Post-emergence crop and weed test (Example 15); settings: 360 h, after 15 days, read-out: Percentage damage EPHHL
# Method: (§2) Seeds of crop and representative weed species were sown in standard soil in pots. After cultivation for 14 days under controlled conditions in a glasshouse (at 22/16° C., day/night; 16 hours light; 65% humidity), the plants were sprayed. The spray solution was prepared by dissolving the technical active ingredient in acetone containing 10.56 wt % Emulsogen EL, 42.22 wt % N-methylpyrrolidone and 2.22 wt % DPG-monoethyl ether to give a 5% stock solution. This was then diluted with water containing 0.2% (v/v) of the adjuvant X-77 to give the desired treatment concentration.
# (§3) The test plants were then grown on under controlled conditions in a glasshouse (at 22/16° C., day/night; 16 hours light; 65% humidity) and watered twice daily. After 15 days the test was evaluated (100 =total damage to plant; 0 =no damage to plant).
# VERPE Veronica persica = test: Post-emergence crop and weed test (Example 15); settings: 360 h, after 15 days, read-out: Percentage damage VERPE
# Method: as §2, §3
# IPOHE Ipomoea hederacea = test: Post-emergence crop and weed test (Example 15); settings: 360 h, after 15 days, read-out: Percentage damage IPOHE
# Method: as §2, §3
# CHEAL Chenopodium album = test: Post-emergence crop and weed test (Example 15); settings: 360 h, after 15 days, read-out: Percentage damage CHEAL
# Method: as §2, §3
# SINAR Sinapis arvensis = test: Post-emergence crop and weed test (Example 15); settings: Mutarda arvensis, 360 h, after 15 days, read-out: Percentage damage SINAR
# Method: as §2, §3
# SIDSP Sida spinosa = test: Post-emergence crop and weed test (Example 15); settings: 360 h, after 15 days, read-out: Percentage damage SIDSP
# Method: as §2, §3
# GLXMA Soybean = test: Post-emergence crop and weed test (Example 15); settings: Glycine max, 360 h, after 15 days, read-out: Percentage damage GLXMA
# Method: as §2, §3
# [8] = tested on: POLCO Polygonum convolvulus; test: Post-emergence crop and weed test (Example 15); settings: Fallopia convolvulus, 360 h, after 15 days, read-out: Percentage damage POLCO
# Method: as §2, §3
# [9] = tested on: XANST Xanthium strumarium; test: Post-emergence crop and weed test (Example 15); settings: 360 h, after 15 days, read-out: Percentage damage XANST
# Method: as §2, §3
# [10] = tested on: ABUTH Abutilon theophrasti; test: Post-emergence crop and weed test (Example 15); settings: 360 h, after 15 days, read-out: Percentage damage ABUTH
# Method: as §2, §3
# [11] = tested on: AMARE Amaranthus retroflexus; test: Post-emergence crop and weed test (Example 15); settings: 360 h, after 15 days, read-out: Percentage damage AMARE
# Method: as §2, §3
# KCHSC Kochia scoparia = test: Post-emergence crop and weed test (Example 15); settings: Bassia scoparia, 360 h, after 15 days, read-out: Percentage damage KCHSC
# Method: as §2, §3
# [12] = tested on: Alopecurus myosuroides (ALOMY); test: Pre-emergence biological efficacy (Example 13); settings: Alopecurus myosuroides, 312 h; pre-emergence, 1,000 g/ha, after 13 days; read-out: Percentage damage ALOMY
# Method: (§4) Seeds of Alopecurus myosuroides (ALOMY), Setaria faberi (SETFA), Echinochloa crus-galli (ECHCG), Solanum nigrum (SOLNI), Amaranthus retroflexus (AMARE) and Ipomea hederaceae (IPOHE) were sown in standard soil in pots. After cultivation for one day under controlled conditions in a glasshouse (at 24/16° C., day/night; 14 hours light; 65% humidity), the plants were sprayed with an aqueous spray solution derived from the formulation of the technical active ingredient in acetone/water (50:50) solution containing 0.5% Tween 20 (polyoxyethylene sorbitan monolaurate, CAS RN 9005-64-5) to give a final dose of 250 or 1000g/ha of test compound. The test plants were then grown under controlled conditions in the glasshouse (at 24/16° C., day/night; 14 hours light; 65% humidity) and watered twice daily. After 13 days the test was evaluated (100 =total damage to plant; 0 =no damage to plant).
# Setaria faberi (SETFA) [13] = test: Pre-emergence biological efficacy (Example 13); settings: Setaria faberi, 312 h; pre-emergence, 1,000 g/ha, after 13 days; read-out: Percentage damage SETFA
# Method: as §4
# Solanum nigrum (SOLNI) [14] = test: Pre-emergence biological efficacy (Example 13); settings: Solanum nigrum, 312 h; pre-emergence, 1,000 g/ha, after 13 days; read-out: Percentage damage SOLNI
# Method: as §4
# [15] = tested on: Ipomea hederaceae (IPOHE); test: Pre-emergence biological efficacy (Example 13); settings: Ipomoea hederacea, 312 h; pre-emergence, 1,000 g/ha, after 13 days; read-out: Percentage damage IPOHE
# Method: as §4
# [16] = tested on: Amaranthus retroflexus (AMARE); test: Pre-emergence biological efficacy (Example 13); settings: Amaranthus retroflexus, 312 h; pre-emergence, 1,000 g/ha, after 13 days; read-out: Percentage damage AMARE
# Method: as §4
# [17] = tested on: Echinochloa crus-galli (ECHCG); test: Pre-emergence biological efficacy (Example 13); settings: Echinochloa crus-galli, 312 h; pre-emergence, 1,000 g/ha, after 13 days; read-out: Percentage damage ECHCG
# Method: as §4
# GALAP Galium aparine = test: Post-emergence crop and weed test (Example 15); settings: 360 h, after 15 days, read-out: Percentage damage GALAP
# Method: as §2, §3
compound,measurement,setting,value
"C=Cc1c(N)nc(-c2ccc(Cl)nc2)nc1C(=O)OC [Compound 8, 4-amino-2-(6-chloropyridin-3-yl)-5-ethenyl-6-methoxycarbonyl-pyrimidine]",pest or weed control at 1000 g/ha,[1],0%
same,pest or weed control at 1000 g/ha,Setaria faberi (SETFA) [2],0%
same,pest or weed control at 1000 g/ha,Solanum nigrum (SOLNI) [3],90%
same,pest or weed control at 1000 g/ha,[4],50%
same,pest or weed control at 1000 g/ha,[5],100%
same,pest or weed control at 1000 g/ha,[6],0%
same,pest or weed control at 250 g/ha,[7]; 250 g/ha,40%
same,pest or weed control at 250 g/ha,VERPE Veronica persica; 250 g/ha,80%
same,pest or weed control at 250 g/ha,IPOHE Ipomoea hederacea; 250 g/ha,50%
same,pest or weed control at 250 g/ha,CHEAL Chenopodium album; 250 g/ha,100%
same,pest or weed control at 250 g/ha,SINAR Sinapis arvensis; 250 g/ha,70%
same,pest or weed control at 250 g/ha,SIDSP Sida spinosa; 250 g/ha,20%
same,plant injury at 250 g/ha,GLXMA Soybean; 250 g/ha,10%
same,pest or weed control at 250 g/ha,[8]; 250 g/ha,60%
same,pest or weed control at 250 g/ha,[9]; 250 g/ha,80%
same,pest or weed control at 250 g/ha,[10]; 250 g/ha,60%
same,pest or weed control at 250 g/ha,[11]; 250 g/ha,100%
same,pest or weed control at 250 g/ha,KCHSC Kochia scoparia; 250 g/ha,60%
same,pest or weed control at 1000 g/ha,[12],10%
same,pest or weed control at 1000 g/ha,Setaria faberi (SETFA) [13],10%
same,pest or weed control at 1000 g/ha,Solanum nigrum (SOLNI) [14],40%
same,pest or weed control at 1000 g/ha,[15],40%
same,pest or weed control at 1000 g/ha,[16],100%
same,pest or weed control at 1000 g/ha,[17],0%
"COC(=O)c1nc(-c2ccc(Cl)c(N(C)C)c2F)nc(N)c1Cl [Ref. Ex. A, 4-Amino-5-chloro-2-(4-chloro-3-dimethylamino-2-fluorophenyl)-6-methoxycarbonyl-pyrimidine, reference compound]",pest or weed control at 30 g/ha,[7]; 30 g/ha,80%
same,pest or weed control at 30 g/ha,GALAP Galium aparine; 30 g/ha,30%
same,pest or weed control at 30 g/ha,VERPE Veronica persica; 30 g/ha,70%
same,pest or weed control at 30 g/ha,IPOHE Ipomoea hederacea; 30 g/ha,70%
same,pest or weed control at 30 g/ha,CHEAL Chenopodium album; 30 g/ha,80%
same,pest or weed control at 30 g/ha,SINAR Sinapis arvensis; 30 g/ha,70%
same,pest or weed control at 30 g/ha,SIDSP Sida spinosa; 30 g/ha,80%
same,plant injury at 30 g/ha,GLXMA Soybean; 30 g/ha,50%
same,pest or weed control at 30 g/ha,[8]; 30 g/ha,90%
same,pest or weed control at 30 g/ha,[9]; 30 g/ha,90%
same,pest or weed control at 30 g/ha,[10]; 30 g/ha,90%
same,pest or weed control at 30 g/ha,[11]; 30 g/ha,100%
same,pest or weed control at 30 g/ha,KCHSC Kochia scoparia; 30 g/ha,80%
"C=Cc1c(NCc2ccco2)nc(C2CC2)nc1C(=O)OC [Ref. Ex. F, 2-Cyclopropyl-5-ethenyl-4-(furan-2-ylmethylamino)-6-methoxycarbonyl-pyrimidine, reference compound]",pest or weed control at 125 g/ha,[7],80%
same,pest or weed control at 125 g/ha,GALAP Galium aparine,80%
same,pest or weed control at 125 g/ha,VERPE Veronica persica,0%
same,pest or weed control at 125 g/ha,IPOHE Ipomoea hederacea,70%
same,pest or weed control at 125 g/ha,CHEAL Chenopodium album,80%
same,pest or weed control at 125 g/ha,SINAR Sinapis arvensis,80%
same,pest or weed control at 125 g/ha,SIDSP Sida spinosa,60%
same,plant injury at 125 g/ha,GLXMA Soybean,80%
same,pest or weed control at 125 g/ha,[8],60%
same,pest or weed control at 125 g/ha,[9],60%
same,pest or weed control at 125 g/ha,[10],60%
same,pest or weed control at 125 g/ha,[11],40%
same,pest or weed control at 125 g/ha,KCHSC Kochia scoparia,30%
"C/C=C/c1c(N)nc(C2CC2)nc1C(=O)OC [Ref. Ex. D, (E)-4-Amino-2-cyclopropyl-6-methoxycarbonyl-5-(prop-1-enyl)-pyrimidine, reference compound]",pest or weed control at 125 g/ha,[7],80%
same,pest or weed control at 125 g/ha,GALAP Galium aparine,80%
same,pest or weed control at 125 g/ha,VERPE Veronica persica,10%
same,pest or weed control at 125 g/ha,IPOHE Ipomoea hederacea,70%
same,pest or weed control at 125 g/ha,CHEAL Chenopodium album,60%
same,pest or weed control at 125 g/ha,SINAR Sinapis arvensis,80%
same,pest or weed control at 125 g/ha,SIDSP Sida spinosa,60%
same,plant injury at 125 g/ha,GLXMA Soybean,80%
same,pest or weed control at 125 g/ha,[8],20%
same,pest or weed control at 125 g/ha,[9],60%
same,pest or weed control at 125 g/ha,[10],50%
same,pest or weed control at 125 g/ha,[11],60%
same,pest or weed control at 125 g/ha,KCHSC Kochia scoparia,10%
